From the supplement of paper PMC10307832

What was measured:
Assay in all cases: relative viability (nuclei count vs DMSO), 5 days (fraction); higher = more cells survive
SGI-1776 + OSI-027 = compound: CN1CCC(CNc2ccc3ncc(-c4cccc(OC(F)(F)F)c4)n3n2)CC1 [SGI-1776] + COc1cccc2cc(-c3nc([C@H]4CC[C@H](C(=O)O)CC4)n4ncnc(N)c34)[nH]c12 [OSI-027] (partner 0.5 µM)
Procedure, shortened: (§1)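 Lung cancer cell lines were pin-tool dosed in 1536-well plates on the day after seeding, with either a lone drug or a fixed anchor-drug dose plus five library-drug doses (not always all listed) in √10 steps. Nuclei were counted on 4× images after 5 days. Relative viability is the ratio of treated-well to vehicle-well nuclei counts, with each value a median of duplicate plates.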

[1] = compound: C1COCCN1C2=NC(=NC3=C2OC4=C3C=CC=N4)C5=CC(=CC=C5)NC(=O)C6=CN=C(C=C6)N + CCNC(=O)c1noc(-c2cc(C(C)C)c(O)cc2O)c1-c1ccc(CN2CCOCC2)cc1 [Luminespib] (partner 0.01 µM)
Procedure, shortened: as §1

[2] = compound: C1COCCN1C2=NC(=NC3=C2OC4=C3C=CC=N4)C5=CC(=CC=C5)NC(=O)C6=CN=C(C=C6)N + Cc1nc(Nc2ncc(C(=O)Nc3c(C)cccc3Cl)s2)cc(N2CCN(CCO)CC2)n1 [Dasatinib] (partner 0.075 µM)
Procedure, shortened: as §1

Entinostat + Vorinostat = compound: Nc1ccccc1NC(=O)c1ccc(CNC(=O)OCc2cccnc2)cc1 [Entinostat] + O=C(CCCCCCC(=O)Nc1ccccc1)NO [Vorinostat] (partner 1 µM)
Procedure, shortened: as §1

| Cell Line | relative viability (SGI-1776 + OSI-027; first compound 0.08 µM) | relative viability (SGI-1776 + OSI-027; first compound 0.8 µM) | relative viability (SGI-1776 + OSI-027; first compound 2.53 µM) | relative viability (SGI-1776 + OSI-027; first compound 8 µM) | relative viability ([1]; first compound 0.02 µM) | relative viability ([1]; first compound 0.06325 µM) | relative viability ([1]; first compound 0.2 µM) | relative viability ([1]; first compound 0.6325 µM) | relative viability ([1]; first compound 2 µM) | relative viability ([2]; first compound 0.02 µM) | relative viability ([2]; first compound 0.06325 µM) | relative viability ([2]; first compound 0.2 µM) | relative viability ([2]; first compound 0.6325 µM) | relative viability ([2]; first compound 2 µM) | relative viability (Entinostat + Vorinostat; first compound 0.02 µM) | relative viability (Entinostat + Vorinostat; first compound 0.06325 µM) | relative viability (Entinostat + Vorinostat; first compound 0.2 µM) | relative viability (Entinostat + Vorinostat; first compound 0.6325 µM) | relative viability (Entinostat + Vorinostat; first compound 2 µM) |
| --- | --- | --- | --- | --- | --- | --- | --- | --- | --- | --- | --- | --- | --- | --- | --- | --- | --- | --- | --- |
| 201T | 0.823 | 0.703 | 0.708 | 0.6 | 1.13 | 1 | 1.05 | 0.985 | 0.827 | 0.55 | 0.558 | 0.606 | 0.57 | 0.579 | 0.995 | 1.07 | 0.95 | 0.691 | 0.491 |
| A-427 | 0.543 | 0.481 | 0.479 | 0.357 | 0.812 | 0.951 | 0.982 | 0.872 | 0.544 | 0.805 | 0.77 | 0.61 | 0.648 | 0.589 | 0.87 | 0.875 | 0.864 | 0.781 | 0.617 |
| ABC-1 | 0.401 | 0.552 | 0.472 | 0.407 | 0.383 | 1.28 | 0.473 | 0.739 | 0.475 | 0.586 | 0.612 | 0.523 | 0.587 | 0.54 | 1.34 | 1.35 | 0.854 | 0.759 | 0.511 |
| BEN | 0.316 | 0.289 | 0.264 | 0.323 | 0.479 | 0.312 | 0.313 | 0.328 | 0.42 | 0.309 | 0.297 | 0.334 | 0.371 | 0.325 | 0.632 | 0.571 | 0.553 | 0.459 | 0.384 |
| CAL-12T | 0.771 | 0.592 | 0.652 | 0.481 | 0.465 | 0.602 | 0.21 | 0.418 | 0.267 | 0.467 | 0.519 | 0.396 | 0.324 | 0.338 | 0.606 | 0.892 | 0.734 | 0.52 | 0.423 |
| COR-L23 | 0.781 | 0.87 | 0.74 | 0.582 | 0.761 | 0.99 | 0.89 | 0.667 | 0.467 | 0.505 | 0.604 | 0.451 | 0.472 | 0.327 | 0.368 | 0.503 | 0.423 | 0.208 | 0.238 |
| COR-L 105 | 0.746 | 0.716 | 0.658 | 0.38 | 0.975 | 0.682 | 0.677 | 0.674 | 0.472 | 0.307 | 0.363 | 0.22 | 0.308 | 0.284 | 0.993 | 0.986 | 0.851 | 0.541 | 0.356 |
| ChaGo-K-1 | 0.619 | 0.61 | 0.39 | 0.413 | 0.635 | 0.582 | 0.513 | 0.526 | 0.518 | 0.555 | 0.625 | 0.605 | 0.508 | 0.522 | 0.765 | 0.763 | 0.768 | 0.626 | 0.464 |
| EKVX | 0.707 | 0.736 | 0.755 | 0.612 | 0.885 | 0.859 | 0.723 | 0.755 | 0.664 | 0.593 | 0.584 | 0.513 | 0.463 | 0.571 | 0.801 | 0.654 | 0.65 | 0.467 | 0.42 |
| EMC-BAC-2 | 0.355 | 0.371 | 0.363 | 0.319 | 1.25 | 1.32 | 1.08 | 1.03 | 0.648 | 0.334 | 0.378 | 0.317 | 0.356 | 0.294 | 0.969 | 0.433 | 0.6 | 0.331 | 0.218 |
| EPLC-272H | 0.32 | 0.249 | 0.306 | 0.274 | 0.242 | 0.588 | 0.401 | 0.271 | 0.33 | 0.295 | 0.359 | 0.267 | 0.309 | 0.219 | 0.483 | 0.397 | 0.33 | 0.236 | 0.139 |
| H3255 | 0.65 | 0.643 | 0.651 | 0.555 | 0.79 | 0.851 | 0.689 | 1.03 | 0.9 | 0.358 | 0.362 | 0.35 | 0.295 | 0.315 | 0.902 | 0.303 | 0.65 | 0.483 | 0.37 |
| HARA | 0.681 | 0.638 | 0.64 | 0.412 | 0.562 | 0.762 | 0.843 | 0.79 | 0.335 | 0.32 | 0.265 | 0.216 | 0.23 | 0.221 | 0.541 | 0.482 | 0.329 | 0.324 | 0.182 |
| HCC-15 | 0.655 | 0.651 | 0.559 | 0.437 | 0.33 | 0.251 | 0.292 | 0.234 | 0.242 | 0.677 | 0.612 | 0.567 | 0.561 | 0.476 | 0.81 | 0.807 | 0.636 | 0.51 | 0.266 |
| HCC-44 | 0.672 | 0.493 | 0.407 | 0.28 | 0.99 | 1.17 | 1.05 | 1.22 | 0.687 |  |  |  |  |  | 1.08 | 0.976 | 0.938 | 0.879 | 0.653 |
| HCC-78 | 0.407 | 0.418 | 0.385 | 0.398 |  |  |  |  |  | 0.406 | 0.449 | 0.456 | 0.345 | 0.403 | 0.44 | 0.435 | 0.441 | 0.33 | 0.281 |
| HCC-366 | 0.837 | 0.866 | 1.02 | 0.667 |  |  |  |  |  | 0.647 | 0.745 | 0.691 | 0.576 | 0.26 | 0.338 | 0.239 | 0.209 | 0.0651 | 0.0386 |
| HCC-827 | 0.804 | 0.843 | 0.793 | 0.602 | 0.634 | 0.557 | 0.65 | 0.586 | 0.456 | 0.282 | 0.294 | 0.414 | 0.233 | 0.308 | 0.988 | 0.879 | 0.631 | 0.62 | 0.287 |
